Measurements: publication PMC10597491 (PLOS ONE, 2023)
Bridge positions count the residues as written; N and C are the ends. Peptide text beside a SMILES is read from it.

Tests used:
cynomolgus IL-7Rα = molecular target: T1, cynomolgus IL-7Rα (Macaca fascicularis, UniProt Q38IC7); experiment: Competition binding ELISA, cynomolgus IL-7Rα ECD; details: immobilized cynomolgus IL-7Rα-His6 ECD; biotinylated peptide/NA-HRP tracer; read-out: Competition ELISA IC50, IL-7Rα Cyno
T1 construct: cynomolgus IL-7Rα(aa 21–235)-His6, Sino Biological Cat# 90332-C08H; His6 (C); purchased Sino Biological 90332-C08H
T1 sequence (Q38IC7 21-235): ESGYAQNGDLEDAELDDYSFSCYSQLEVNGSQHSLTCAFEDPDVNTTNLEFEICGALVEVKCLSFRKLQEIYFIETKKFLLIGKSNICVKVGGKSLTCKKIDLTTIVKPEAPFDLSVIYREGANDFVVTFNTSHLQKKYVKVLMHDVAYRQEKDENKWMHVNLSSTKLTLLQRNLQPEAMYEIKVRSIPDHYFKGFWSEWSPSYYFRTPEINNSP
From the text: (§1) (A, B) Determination of IC50 values in a competition ELISA for compound binding to human and cyno IL-7Rα and γc. The assay format is IL-7Rα-(His)6-tagged ECD or Fc-γc ECD immobilized on 96-well plates. Tracers are C-terminal biotinylated forms of the reference IL-7Rα and γc peptide ligands, each pre-complexed with Neutravidin-HRP (NA-HRP). (C, D) Label-free measurement of the equilibrium dissociation constant (KD) for peptide binding to IL-7Rα and γc extracellular domains with peptides was performed by biolayer interferometry as detailed in methods. Red lines depict 1:1 binding fit from Gator™ software. Blue lines represent individual BLI sensogram data taken every 0.1 seconds.
(§2) Binding was determined using a competition binding ELISA. Microtiter plates (Immulon 4HBX flat bottom 96-well) were coated with 50 μL of […] human ECDs: IL-7Rα(aa 21–236)-His6, Sino Biological Cat# 10975-H08H; cynomolgus IL-7Rα(aa 21–235)-His6, Sino Biological Cat# 90332-C08H; human IL-2Rα(aa 23–254)-Fc, Acro Cat# ILG-H5256; cynomolgus IL-2Rα(aa 23–254)-Fc, made in-house, in PBS overnight at 4°C. […] Plates were washed with cold wash buffer, and bound tracer was detected using TMB One Component HRP substrate and Stop Solution (Surmodics Cat# TMBW-1000-01 and LSTP-0100-01). Absorbance at 450 nm was read using Agilent BioTek Synergy HTX Multimode Reader.

IL-7R = molecular target: T2, IL-7R (Homo sapiens, UniProt P16871+P31785); experiment: STAT5 phosphorylation in TF1-7Rα cells; format: cell-based; details: TF1-7Rα cells, 10 μM peptide alone
T2 construct: constructed to express full-length human IL-7Rα in TF-1 cells; TF-1 cells, which naturally express γc, but not IL-7Rα; expressed in transfected cells
T2 sequence (P16871 21-459): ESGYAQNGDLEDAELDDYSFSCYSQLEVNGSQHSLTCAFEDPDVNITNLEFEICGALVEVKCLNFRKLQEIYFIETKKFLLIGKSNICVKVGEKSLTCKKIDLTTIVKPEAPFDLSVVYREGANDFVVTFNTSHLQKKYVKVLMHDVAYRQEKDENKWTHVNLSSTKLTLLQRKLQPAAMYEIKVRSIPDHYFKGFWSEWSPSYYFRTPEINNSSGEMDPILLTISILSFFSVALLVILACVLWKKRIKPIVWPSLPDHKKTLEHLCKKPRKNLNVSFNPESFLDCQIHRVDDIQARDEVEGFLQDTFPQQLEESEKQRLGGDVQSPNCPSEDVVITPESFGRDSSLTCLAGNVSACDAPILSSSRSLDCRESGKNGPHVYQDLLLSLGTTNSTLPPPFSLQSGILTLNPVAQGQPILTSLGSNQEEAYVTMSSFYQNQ
T2 sequence (P31785 23-369): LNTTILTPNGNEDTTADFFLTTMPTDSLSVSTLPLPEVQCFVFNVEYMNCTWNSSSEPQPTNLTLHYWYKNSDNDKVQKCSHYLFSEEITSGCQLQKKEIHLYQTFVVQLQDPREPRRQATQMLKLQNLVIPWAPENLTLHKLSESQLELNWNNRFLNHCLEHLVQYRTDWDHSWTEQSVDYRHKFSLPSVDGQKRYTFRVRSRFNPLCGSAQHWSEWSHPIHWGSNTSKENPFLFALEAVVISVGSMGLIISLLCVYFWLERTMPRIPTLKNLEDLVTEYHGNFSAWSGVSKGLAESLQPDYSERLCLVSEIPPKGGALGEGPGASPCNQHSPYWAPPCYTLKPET
Method: The synthetic peptide MDK1472 was designed to bind simultaneously to IL-7Rα and γc subunits and was tested for its ability to induce phosphorylation of STAT5, the primary IL-7R signaling pathway.
Reactions were stopped and cell lysates prepared for pSTAT5 analysis.
(§3) Cells were deprived of growth factors by overnight incubation at 5×10^5 cells/mL in starvation medium (RPMI 1640 + 4.5 g/L glucose + 0.2% FBS + 2 mM L-glutamine + 1 mM NaPyr + 10 mM HEPES + 0.5x penicillin-streptomycin with no cytokine supplement) in T75 flasks. For assays, cells were plated in 96-well V-bottom plates at 2×10^5 cells/well. Three-fold serial dilutions in starvation medium of the test compounds or cytokine were added to the cells and incubated for 30 min at 37°C. Following incubation, cell extracts were prepared by adding a mixture of 10x Cell Lysis Buffer (Cell Signaling Technology Cat# 9803) and 100x HALT Phosphatase and Protease Inhibitor Cocktail (Thermo Fisher Cat# 78442) directly to the wells. The plates were agitated at 25°C for 5 min to prepare cell extracts for immediate use or to be stored at -80°C until assay. Detection of pSTAT5 was performed using a PathScan® Phospho-Stat5 (pTyr694) Sandwich ELISA Kit (Cell Signaling Technology Cat# 7113). Detection of pSTAT6 was performed using a PathScan® Phospho-Stat6 (pTyr641) Sandwich ELISA Kit (Cell Signaling Technology Cat# 7275). Detection of pSTAT3 was performed using a PathScan® Phospho-Stat3 (pTyr705) Sandwich ELISA Kit (Cell Signaling Technology Cat# 7300). Cell lysates were added to pre-coated ELISA wells and incubated at 4°C overnight. Primary and secondary antibody incubations and wash steps were performed according to the protocols supplied by the manufacturer. Assays were developed using TMB substrate (Surmodics Cat# TMBW-1000-01) for 5–10 min at 25°C and the reaction was stopped using STOP solution (Surmodics Cat# LSTP-1000-01).

human IL-7Rα ECD = molecular target: T3, human IL-7Rα ECD (Homo sapiens, UniProt P16871); experiment: Competition binding ELISA, human IL-7Rα ECD; details: immobilized IL-7Rα-(His)6 ECD; tracer biotinylated MDK1248 pre-complexed with Neutravidin-HRP; 4°C; valency-sensitive format
T3 construct: IL-7Rα(aa 21–236)-His6, Sino Biological Cat# 10975-H08H; His6 (C); purchased Sino Biological 10975-H08H
T3 sequence (P16871 21-236): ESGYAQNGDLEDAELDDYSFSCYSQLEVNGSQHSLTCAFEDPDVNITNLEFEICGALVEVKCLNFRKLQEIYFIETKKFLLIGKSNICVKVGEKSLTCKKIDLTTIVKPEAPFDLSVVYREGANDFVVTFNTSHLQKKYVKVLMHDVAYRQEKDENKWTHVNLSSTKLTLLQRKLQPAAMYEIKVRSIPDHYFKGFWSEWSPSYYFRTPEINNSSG
From the text: as §1, §2

human γc ECD = molecular target: T4, human γc ECD (Homo sapiens, UniProt P31785); experiment: Competition binding ELISA, human γc ECD; details: immobilized Fc-γc ECD; tracer biotinylated MDK1188 pre-complexed with Neutravidin-HRP; 4°C
T4 construct: human IL-2Rα(aa 23–254)-Fc, Acro Cat# ILG-H5256; purchased Acro ILG-H5256
T4 sequence (P31785 23-254): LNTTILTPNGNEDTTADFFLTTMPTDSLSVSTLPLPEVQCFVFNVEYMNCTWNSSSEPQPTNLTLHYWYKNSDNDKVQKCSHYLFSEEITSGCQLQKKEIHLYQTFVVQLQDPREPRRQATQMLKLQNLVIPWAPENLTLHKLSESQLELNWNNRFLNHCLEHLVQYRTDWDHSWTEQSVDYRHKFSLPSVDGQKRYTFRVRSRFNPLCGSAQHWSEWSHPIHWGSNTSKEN
From the text: as §1, §2

IL-2βγc receptor = molecular target: T5, IL-2βγc receptor (Homo sapiens, UniProt P31785); experiment: IL-2-induced pSTAT5 in TF-1 cells expressing IL-2/15Rβ; format: cell-based
T5 construct: pcDNA3.1 expression vector encoding full-length IL-2Rβ, IL-7Rα, IL-9Rα, or IL-21Rα; TF-1 cells naturally express γc and IL-4Rα; expressed in transfected cells
T5 sequence (P31785 23-369): T2 sequence (P31785 23-369)
Method: as §3, with “Primary and secondary antibody incubations and wash steps were performed according to the protocols supplied by the manufacturer. Assays were developed using TMB substrate (Surmodics Cat# TMBW-1000-01) for 5–10 min at 25°C and the reaction was stopped using STOP solution (Surmodics Cat# LSTP-1000-01).” left out

IC50 (cynomolgus IL-7Rα) [nM] | induction of pSTAT5 by individual peptide ligands (IL-7R) | IC50 (human IL-7Rα ECD) [nM] | IC50 (human γc ECD) [nM] | IC50 (IL-2βγc receptor) [nM] | SMILES
92 | no induction of pSTAT5 | 150 | – | – | CC[C@H](C)[C@H](NC(=O)CNC(=O)[C@H](Cc1c[nH]c2ccccc12)NC(=O)CN)C(=O)N1CCC[C@H]1C(=O)N[C@@H](Cc1c[nH]c2ccccc12)C(=O)N[C@H]1CSSC[C@@H](C(=O)N[C@@H](C)C(=O)N[C@@H](Cc2c[nH]c3ccccc23)C(=O)N[C@@H](CC(C)C)C(=O)NCC(=O)N[C@@H](CCCCN)C(=O)N[C@@H](Cc2c[nH]cn2)C(=O)NCC(=O)NCC(=O)O)NC(=O)[C@H](CCC(N)=O)NC(=O)[C@H](CC(C)C)NC(=O)[C@H](CO)NC(=O)CNC(=O)[C@@H]2CCCN2C(=O)[C@H](CC(=O)O)NC(=O)[C@H](CC(C)C)NC(=O)[C@H]([C@@H](C)O)NC1=O [MDK1248] (H-GWGIPWCTLDPGSLQCAWLGKHGG-OH; disulfide 7-16)
– | no induction of pSTAT5 | – | 24 | 1600 | CC(C)C[C@@H]1NC(=O)[C@H](CCC(=O)O)NC(=O)[C@H](C(C)C)NC(=O)CNC(=O)[C@H](CCC(=O)O)NC(=O)[C@H](Cc2c[nH]c3ccccc23)NC(=O)[C@H](CC(=O)O)NC(=O)[C@H](CCC(N)=O)NC(=O)[C@@H](NC(=O)[C@@H](NC(=O)[C@@H](NC(=O)CNC(=O)CN)C(C)C)C(C)C)CSSC[C@@H](C(=O)N[C@@H](Cc2c[nH]c3ccccc23)C(=O)N[C@@H](CCC(N)=O)C(=O)NCC(=O)NCC(=O)O)NC1=O [MDK1188]
